Assay results published in patent US10806711B2 (priority 2011, dated 2020).
pEC50: −log10 of the molar value. Entries after “also recorded” stand apart in the source; their conditions may differ.

Experiments:
[1] = system: phospholamban (PLN) and the ryanodine receptor (RyR), NCX, SERCA2a; test: Western blot of calcium handling proteins in Langendorff hearts; design: species or system mouse
From the text: Western Blot Analysis—WT hearts used for protein expression were isolated from control mice (C57, 12-16 weeks old) from the Langendorff experiments. Total protein for calcium handling proteins was isolated by homogenizing whole hearts in an ice-cold buffer containing (in mM): 80 Imidazole, 300 sucrose, 1 DTT, 10 sodium metabisulfite, the protease inhibitor cocktail P8340 (Sigma, St. Louis, Mo.) and the phosphatase inhibitor cocktail set II (EMD, Merck, Darmstadt, Germany). Protein concentrations were determined using the BCA Protein Assay kit (Pierce, Thermo Scientific, Rockford, Ill.). Aliquots of protein were separated on SDS-PAGE gels (Novex gels, Invitrogen, Eugene, Oreg.) and then transferred to nitrocellulose membranes (Bio-Rad, Hercules, Calif.) and blocked with 5% BSA. The membranes were analyzed with primary antibodies. When appropriate, the membranes were cut in half to allow two different primary antibodies to be used. The top half would be used for one of the Ca^2+ handling proteins and the bottom half (less than 60 kD) would be used for the normalization protein, actin. In circumstances where it wasn't appropriate to cut the membrane, as the two proteins were too close in size, the membranes were stripped after the first protein. Membranes were also stripped between primary antibodies for phosphorylated proteins and corresponding total protein.

[2] = system: isolated ventricular myocytes; test: Myocyte contractility measurement; assay type: cell-based, mouse
Protocol: Isolation of ventricular myocytes—Hearts from WT mice (12-week old) were perfused on the Langendorff system with a modified Krebs-Henseleit buffer (KHB) composed of (mM) NaCl 118, KCl 5.4, HEPES 10, NaH2PO4 0.33, MgCl2 2, glucose 10, taurine 30, butanedione monoxime 10 (pH=7.4). Then an enzyme solution (KHB containing 0.7 mg/ml type II collagenase, 0.1% BSA and 25 μM CaCl2) was used to digest the hearts for 10 min. Finally, ventricles of the hearts were excised, minced and filtered to obtain isolated cells. After sufficient sedimentation, the supernatant was removed and the cells were resuspended. Myocyte contractility measurement—Myocytes were put on a plexiglass chamber containing a Tyrode's solution composed of (mM) NaCl 140, KCl, 5.4, MgCl2 1, CaCl2 1.8, HEPES 5, glucose 10 (pH=7.4). Myocytes were excited under 0.5 Hz field stimulation. After reaching the steady state, myocyte shortening and the rates of shortening (+dL/dt) and relengthening (−dL/dt) were imaged with a CCD camera and monitored by a video-edge detector. Drugs were dissolved in Tyrode's solution and perfused into the chamber. Data were continuously collected through the PCLAMP 9 software. Water soluble probenecid was used for all of the myocyte experiments.

WT mice = test: In vivo electrophysiology (electrocardiographic data during echo studies); design: species or system mouse
Protocol: In vivo electrophysiology—Electrocardiographic data was obtained during all echocardiographic studies. These studies were subsequently analyzed by an independent, blinded reader at all time points to evaluate for electrocardiographic changes and drug induced arrhythmias. The following parameters were measured: PR interval, RR interval, QRS width and were reported as peak change while the presence of supraventricular or ventricular arrhythmias was measured as a total observed over all images obtained in 30 minutes.

[3] = system: isolated ventricular myocytes; test: Whole-cell patch clamp Ca2+ current recording; assay type: cell-based, mouse; details: myocytes held at −70 mV, 0.1 μM
Protocol: Electrophysiological recordings—Isolated myocytes were perfused with a Na^+- and K^+-free solution containing (mM): tetraethylammonium chloride (TEA-Cl) 137, CsCl 5.4, CaCl2 2, MgCl2 1, HEPES 5, glucose 10 and 4-aminopyridine 3 (pH=7.4). Whole-cell patch clamp recordings were performed with an Axopatch-1B amplifier. For Ca^2+ current recordings, glass pipettes were filled with solution containing (mM): aspartic acid 115, CsOH 115, CsCl 20, EGTA 11, HEPES 10, MgCl2 2.5, Na-GTP 0.1, Mg-ATP 2 (pH adjusted to 7.2 with CsOH). Probenecid was dissolved in a Na^+- and K^+-free solution which was used to perfuse the myocytes. Data were collected using pCLAMP9 software through an Axon Digidata 1322A data acquisition system. All experiments were performed at room temperature (24° C.).

CCCN(CCC)S(=O)(=O)c1ccc(C(=O)O)cc1 [probenecid]
expression levels of NCX and SERCA2a ([1]; hearts after 10^−6 M perfusion, data not shown): no changes were found in the expression levels
amount of phosphorylated or total phospholamban or ryanodine receptor ([1]; hearts after 5 minute perfusion of 10^−6 M): no significant changes
increase of myocyte fractional shortening (FS) ([2]; 0.1 μM, 0.5 Hz, room temp, n=6): 30.8±1.4%
myocyte fractional shortening (FS) ([2]; 0.1 μM, 0.5 Hz, room temp, from 6.9% control): 9.0%
myocyte fractional shortening (FS) ([2]; 3 Hz and 32° C., n=4, from 10.1% control): 13.9%
pEC50 ([2]; Mus musculus, Ventricular myocyte, isolated ventricular myocytes, averages from 4 mice, read-out: EC50 of dose-response curve on myocyte contractility): 8.80
maximum +dL/dt (rate of shortening) ([2]; room temperature, n=10, from 80.6±12.3): 112.5±16.6 μm/sec
−dL/dt (rate of relengthening) ([2]; room temperature, from 57.7±7.4): 77.6±8.7 μm/sec
electrocardiographic differences between WT and TRPV2−/− mice (FIG. 2D) (WT mice; 100 mg/kg IP): no significant differences
changes in conduction intervals (RR, PR, QRS) (WT mice; all doses): no measured changes in any conduction intervals; also recorded: no significant changes in any of the measured electrocardiographic variables
supraventricular or ventricular arrhythmias, premature beats (WT mice; any dose of probenecid, observed over 30 minutes): No supraventricular or ventricular arrhythmias or premature atrial or ventricular beats were observed; also recorded: no arrhythmias
inward Ca2+ current [3]: No measurable inward Ca^2+ current was detected
